Structures can show the parent of a compound that is named as a salt.
Molecular target: T1, human neurokinin-1-receptor (NK1R) (Homo sapiens, UniProt P25103)
T1 construct: expressed in transfected cells
Assay: Substance P antagonism assay: 125I-substance P binding to human NK1R expressed in COS or CHO cells
Details: 125I-SP displacement, read-out: IC50 @ NK1R
Procedure: To express the cloned human neurokinin-1-receptor (NK1R) transiently in COS, the cDNA for the human NK1R was cloned into the expression vector pCDM9 which was derived from pCDM8 (INVITROGEN) by inserting the ampicillin resistance gene (nucleotide 1973 to 2964 from BLUESCRIPT SK+ (trademark, STRATAGENE, La Jolla, Calif., USA)) into the Sac II site. Transfection of 20 ug of the plasmid DNA into 10 million COS cells was achieved by electroporation in 800 μl of transfection buffer (135 mM NaCl, 1.2 mM CaCl2, 1.2 mM MgCl2, 2.4 mM K2 HPO4, 0.6 mM KH2 PO4, 10 mM glucose, 10 mM N-2-hydroxyethyl-piperazine-N'-2-ethane […] (HEPES) pH 7.4) at 260 V and 950 μF using the IBI GENEZAPPER (trademark IBI, New Haven, Conn., USA). The cells were incubated in 10% fetal calf serum, 2 mM glutamine, 100 U/ml penicillin-streptomycin, and 90% DMEM media (GIBCO, Grand Island, N.Y., USA) in 5% CO2 at 37° C. for three days before the binding assay.
To establish a stable cell line expressing cloned human […], the cDNA was subcloned into the vector pRcCMV (INVITROGEN). Transfection of 20 ug of the plasmid DNA into CHO cells was achieved by electroporation in 800 μl of transfection buffer supplemented with 0.625 mg/ml Herring sperm DNA at 300 V and 950 μF using the IBI GENEZAPPER (IBI). The transfected cells were incubated in CHO media [10% fetal calf serum, 100 U/ml penicillin-streptomycin, 2 mM glutamine, 1/500 hypoxanthine-thymidine (ATCC), 90% IMDM media (JRH BIOSCIENCES, Lenexa, Kans. USA), 0.7 mg/ml G418 (GIBCO)] in 5% CO2 at 37° C. until colonies were visible. Each colony was separated and propagated. The cell clone with the highest number of human NK1R was selected for subsequent applications such as drug screening.
The binding assay of human NK1R expressed in either COS or CHO cells is based on the use of ^125 I-substance P (^125 I-SP, from DU PONT, Boston, Mass.) as a radioactively labeled ligand which competes with unlabeled substance P or any other ligand for binding to the human NK1R. Monolayer cell cultures of COS or CHO were dissociated by the non-enzymatic solution (SPECIALTY MEDIA, Lavellette, N.J.) and resuspended in appropriate volume of the binding buffer (50 mM Tris pH 7.5, 5 mM MnCl2, 150 mM NaCl, 0.04 mg/ml bacitracin, 0.004 mg/ml leupeptin, 0.2 mg/ml BSA, 0.01 mM phosphoramidon) such that 200 μl of the cell suspension would give rise to about 10,000 cpm of specific ^125 I-SP binding (approximately 50,000 to 200,000 cells). In the binding assay, 200 μl of cells were added to a tube containing 20 μl of 1.5 to 2.5 nM of ^125 I-SP and 20 μl of unlabeled substance P or any other test compound. The tubes were incubated at 4° C. or at room temperature for 1 hour with gentle shaking. The bound radioactivity was separated from unbound radioactivity by GF/C filter (BRANDEL, Gaithersburg, Md.) which was pre-wetted with 0.1% polyethylenimine. The filter was washed with 3 ml of wash buffer (50 mM Tris pH 7.5, 5 mM MnCl2, 150 mM NaCl) three times and its radioactivity was determined by gamma counter.

T1 sequence (P25103 whole entry): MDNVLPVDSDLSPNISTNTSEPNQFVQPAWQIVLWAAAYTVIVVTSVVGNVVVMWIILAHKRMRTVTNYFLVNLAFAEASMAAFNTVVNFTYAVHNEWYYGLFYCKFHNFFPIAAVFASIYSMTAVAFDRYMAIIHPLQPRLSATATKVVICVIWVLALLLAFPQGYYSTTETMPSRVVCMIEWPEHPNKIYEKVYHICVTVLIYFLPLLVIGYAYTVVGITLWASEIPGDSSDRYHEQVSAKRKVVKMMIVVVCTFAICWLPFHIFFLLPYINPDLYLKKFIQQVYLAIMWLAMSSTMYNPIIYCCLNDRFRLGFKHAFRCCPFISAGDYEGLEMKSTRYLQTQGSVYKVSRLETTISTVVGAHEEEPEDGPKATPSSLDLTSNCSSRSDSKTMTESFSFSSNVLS

Compound | IC50 [nM]
OC(C=C1C2CCN(CC2)C1C(c1ccccc1)c1ccccc1)c1cc(C(F)(F)F)cc(C(F)(F)F)c1 (single isomer, unassigned) [9 (ISOMER A), E-3-[Methylene-2-(3,5-bistrifluoromethyl)hydroxymethyl]-2-benzhydrylquinuclidine] | 0.9
FC(F)(F)c1cccc(CC=C2C3CCN(CC3)C2C(c2ccccc2)c2ccccc2)c1 (stereo not drawn) [Example 6, E-3-[Methylene(3-trifluoromethyl)benzyl]-2-benzhydryl quinuclidine] | 100
O=C(C=C1C2CCN(CC2)C1C(c1ccccc1)c1ccccc1)c1cc(C(F)(F)F)cc(C(F)(F)F)c1 (stereo not drawn) [Example 7, E-3-[Methylene(3,5-bistrifluoromethylphenyl)oxo]-2-benzhydryl quinuclidine] | > 300
OC(C=C1C2CCN(CC2)C1Cc1ccccc1)c1cc(C(F)(F)F)cc(C(F)(F)F)c1 (single isomer, unassigned) [15 (DIASTEREOMER A), E-3-[Methylene-(3,5-bistrifluoromethylphenyl)hydroxymethyl]-2-benzyl quinuclidine] | 63
FC(C=C1C2CCN(CC2)C1C(c1ccccc1)c1ccccc1)c1cc(C(F)(F)F)cc(C(F)(F)F)c1 (single isomer, unassigned; isomer a) [Example 10, E-3-[Methylene-2-(3,5-bistrifluoromethyl)fluoromethyl]-2-benzhydrylquinuclidine (Isomer A) oxalate salt] | 5
OC(C=C1C2CCN(CC2)C1C(c1ccccc1)c1ccccc1)c1ccccc1 (single isomer, unassigned) [4 (ISOMER B), E-3-[Methylene(hydroxymethyl)phenyl]-2-benzhydryl quinuclidine] | 200
Cc1cc(C)cc(C(=O)C=C2C3CCN(CC3)C2C(c2ccccc2)c2ccccc2)c1 (stereo not drawn) [Example 12, E-3-[Methylene-2-keto(3,5-dimethyl)phenyl]-2-benzhydryl quinuclidine] | 140
O=C(C=C1C2CCN(CC2)C1C(c1ccccc1)c1ccccc1)c1ccccc1 (stereo not drawn) [Example 8, E-3-[Methyleneketophenyl]-2-benzhydrylquinuclidine] | 190
OC(C=C1C2CCN(CC2)C1Cc1ccccc1)c1cc(C(F)(F)F)cc(C(F)(F)F)c1 (single isomer, unassigned) [15 (DIASTEREOMER B), E-3-[Methylene-(3,5-bistrifluoromethylphenyl)hydroxymethyl]-2-benzyl quinuclidine] | 6
Cc1cccc(C)c1C(O)C=C1C2CCN(CC2)C1C(c1ccccc1)c1ccccc1 (stereo not drawn) [Example 14, E[3-Methylene(2,6-dimethylphenyl)hydroxymethyl]-2-benzhydryl quinuclidine] | 90
FC(C=C1C2CCN(CC2)C1C(c1ccccc1)c1ccccc1)c1cc(C(F)(F)F)cc(C(F)(F)F)c1 (single isomer, unassigned; isomer b) [Example 11, E-3-[Methylene-2-(3,5-bistrifluoromethyl)fluoromethyl]-2-benzhydrylquinuclidine (Isomer B)] | 9

Same assay, conditions: IC50 @ NK1R, 125I-SP displacement

Compound | IC50 [nM]
COc1ccccc1C(O)C=C1C2CCN(CC2)C1C(c1ccccc1)c1ccccc1 (single isomer, unassigned) [1 (ISOMER A)] | 50
OC(C=C1C2CCN(CC2)C1C(c1ccccc1)c1ccccc1)c1cccc(C(F)(F)F)c1 (single isomer, unassigned) [3 (ISOMER B), E-3-[Methylene(3-trifluoromethylphenyl)hydroxymethyl]-2-benzyhydryl quinuclidine] | 110
COc1ccccc1C(O)C=C1C2CCN(CC2)C1C(c1ccccc1)c1ccccc1 (single isomer, unassigned) [1 (ISOMER B)] | 130
OC(C=C1C2CCN(CC2)C1C(c1ccccc1)c1ccccc1)c1cccc(C(F)(F)F)c1 (single isomer, unassigned) [3 (ISOMER A), E-3-[Methylene(3-trifluoromethylphenyl)hydroxymethyl]-2-benzyhydryl quinuclidine] | 30
C(Cc1ccccc1)=C1C2CCN(CC2)C1C(c1ccccc1)c1ccccc1 (stereo not drawn) [Example 5, E-3-[Methylenebenzyl]-2-benzhydryl quinuclidine] | 170
Cc1cc(C)cc(C(O)C=C2C3CCN(CC3)C2C(c2ccccc2)c2ccccc2)c1 (stereo not drawn) [Example 13, E-[3-Methylene(3,5-dimethylphenyl)hydroxymethyl]-2-benzhydryl quinuclidine] | 13
OC(C=C1C2CCN(CC2)C1C(c1ccccc1)c1ccccc1)c1ccc(F)cc1 (single isomer, unassigned) [2 (ISOMER B), E-[3-[Methylene(4-fluorophenyl)hydroxymethyl]-2-benzhydryl)quinuclidine] | 197

Source: patent US5256671A, “Azabicyclic compounds, pharmaceutical compositions containing them and their use in therapy” (Merck Sharp & Dohme, Limited, priority 1992, dated 1993)
